Values joined by “and” are separate entries in the source; they are usually repeats but may differ in a detail not shown here. Equal values may be shown once.

Results on eight compounds are retold here after ChEMBL document CHEMBL3751747, “Synthesis and positive inotropic activity evaluation of liguzinediol metabolites” (Bioorg Med Chem Lett, 2016).

The nature of data set [1]: Retention time of the compound by HPLC- MS/MS analysis. The format is physicochemical.
The test system of data set [2] is Heart. Description: Positive inotropic activity in Sprague-Dawley rat heart assessed as left ventricular diastolic pressure at 100 umol/L (reference value: -0.04 +/- 0.33 to -0.67 +/- 0.69 mmHg). The class given is functional, Heart left ventricle.
Data set [3] deals with Heart. Description: Positive inotropic activity in Sprague-Dawley rat heart assessed as peak decrease rate of left ventricular pressure at 10 umol/L (reference value: - 756.58 +/- 265.23 to - 831 +/- 313.09 mmHg/s). The class given is functional, Heart left ventricle.
Data set [4] deals with Heart. Kind of data set: Positive inotropic activity in Sprague-Dawley rat heart assessed as left ventricular systolic pressure at 1 umol/L (reference value: 20.7 +/- 7.61 to 25.86 +/- 9.41 mmHg). The class given is functional, Heart left ventricle.
Data set [5] has as its system Heart. Description: Positive inotropic activity in Sprague-Dawley rat heart assessed as heart rate at 10 umol/L (reference value: 218.67 +/- 20.62 to 260 +/- 21.81 bpm). The class given is functional.
In data set [6] the test system is Heart. Kind of data set: Positive inotropic activity in Sprague-Dawley rat heart assessed as peak decrease rate of left ventricular pressure at 100 umol/L (reference value: - 756.58 +/- 265.23 to - 831 +/- 313.09 mmHg/s). The class given is functional, Heart left ventricle.
In data set [7] the test system is Heart. Kind of data set: Positive inotropic activity in Sprague-Dawley rat heart assessed as left ventricular systolic pressure at 10 umol/L (reference value: 20.7 +/- 7.61 to 25.86 +/- 9.41 mmHg). The format is functional, Heart left ventricle.
The subject of data set [8] is Heart. Kind of data set: Positive inotropic activity in Sprague-Dawley rat heart assessed as peak rise of left ventricular pressure at 100 umol/L (reference value: 1117.66 +/- 665.76 to 1242.03 +/- 495.72 mmHg/s). The class given is functional, Heart left ventricle.
Data set [9] concerns Heart. Kind of data set: Positive inotropic activity in Sprague-Dawley rat heart assessed as left ventricular systolic pressure at 100 umol/L (reference value: 20.7 +/- 7.61 to 25.86 +/- 9.41 mmHg). The class given is functional, Heart left ventricle.
Data set [10] deals with Heart. Kind of data set: Positive inotropic activity in Sprague-Dawley rat heart assessed as peak rise rate of left ventricular pressure at 10 umol/L (reference value: 1117.66 +/- 665.76 to 1242.03 +/- 495.72 mmHg/s). The format is functional, Heart left ventricle.
The test system of data set [11] is Heart. Kind of data set: Toxicity in Sprague-Dawley rat heart assessed as arrhythmias. Particulars: in vivo.
The subject of data set [12] is Heart. Kind of data set: Positive inotropic activity in Sprague-Dawley rat heart assessed as heart rate at 100 umol/L (reference value: 218.67 +/- 20.62 to 260 +/- 21.81 bpm). The class given is functional.
The test system of data set [13] is Heart. Description: Positive inotropic activity in Sprague-Dawley rat heart assessed as heart rate at 1 umol/L (reference value: 218.67 +/- 20.62 to 260 +/- 21.81 bpm). The class given is functional.
Data set [14] relates to Heart. Kind of data set: Positive inotropic activity in Sprague-Dawley rat heart assessed as peak rise rate of left ventricular pressure at 1 umol/L (reference value: 1117.66 +/- 665.76 to 1242.03 +/- 495.72 mmHg/s). The format is functional, Heart left ventricle.
Data set [15] relates to Heart. Kind of data set: Positive inotropic activity in Sprague-Dawley rat heart assessed as peak decrease rate of left ventricular pressure at 1 umol/L (reference value: - 756.58 +/- 265.23 to - 831 +/- 313.09 mmHg/s). The class given is functional, Heart left ventricle.
In data set [16] the test system is Heart. Description: Positive inotropic activity in Sprague-Dawley rat heart assessed as left ventricular diastolic pressure at 1 umol/L (reference value: -0.04 +/- 0.33 to -0.67 +/- 0.69 mmHg). The class given is functional, Heart left ventricle.
The test system of data set [17] is Heart. Kind of data set: Positive inotropic activity in Sprague-Dawley rat heart assessed as left ventricular diastolic pressure at 10 umol/L (reference value: -0.04 +/- 0.33 to -0.67 +/- 0.69 mmHg). The format is functional, Heart left ventricle.
Data set [18] relates to Heart. Kind of data set: Positive inotropic activity in Sprague-Dawley rat heart assessed as increase in peak decrease rate of left ventricular pressure at 10 uM relative to control. The format is functional, Heart left ventricle. Further details: scale not given: the % may be the effect or the level left.
For data set [19], the system named is Heart. Kind of data set: Positive inotropic activity in Sprague-Dawley rat heart assessed as increase in peak rise of left ventricular pressure at 100 uM relative to control. The class given is functional, Heart left ventricle.
Data set [20] has as its system Heart. Description: Positive inotropic activity in Sprague-Dawley rat heart assessed as +dP/dtmax. The format is functional, tissue-based.
The test system of data set [21] is Heart. Kind of data set: Positive inotropic activity in Sprague-Dawley rat heart assessed as -dP/dtmax. The format is functional, tissue-based.
Data set [22] has as its system Heart. Description: Positive inotropic activity in Sprague-Dawley rat heart assessed as increase in left ventricular systolic pressure at 100 uM relative to control. The class given is functional, Heart left ventricle.
For data set [23], the system named is Heart. Kind of data set: Positive inotropic activity in Sprague-Dawley rat heart assessed as left ventricular systolic pressure. The format is functional, tissue-based. Particulars: Heart left ventricle.
Data set [24] relates to Heart. Description: Positive inotropic activity in Sprague-Dawley rat heart assessed as increase in left ventricular systolic pressure at 1 uM relative to control. The format is functional, Heart left ventricle.
Data set [25] deals with Heart. Description: Positive inotropic activity in Sprague-Dawley rat heart assessed as increase in left ventricular systolic pressure at 10 uM relative to control. The format is functional, Heart left ventricle.
Data set [26] relates to Heart. Description: Positive inotropic activity in Sprague-Dawley rat heart assessed as increase in peak rise of left ventricular pressure at 10 uM relative to control. The class given is functional, Heart left ventricle.
Data set [27] deals with Heart. Kind of data set: Positive inotropic activity in Sprague-Dawley rat heart assessed as increase in peak decrease rate of left ventricular pressure at 1 uM relative to control. The format is functional, Heart left ventricle. Set-up: scale not given: the % may be the effect or the level left.
Data set [28] has as its system Heart. Kind of data set: Positive inotropic activity in Sprague-Dawley rat heart assessed as increase in peak decrease rate of left ventricular pressure at 100 uM relative to control. The class given is functional, Heart left ventricle. Set-up: scale not given: the % may be the effect or the level left.
For data set [29], the system named is Heart. Description: Positive inotropic activity in Sprague-Dawley rat heart assessed as increase in peak rise of left ventricular pressure at 1 uM relative to control. The class given is functional, Heart left ventricle.

For `CC(=O)NC(CSCc1nc(C)c(CO)nc1C)C(=O)O` (stereo in doubt), the Retention_time in [1] worked out at 5.709 min.

As for `Cc1nc(CSCC(N)C(=O)O)c(C)nc1CO` (stereo in doubt; 3), the Activity was -0.24 mmHg in the data set with Heart [2]; -784.9 mmHg/s in the data set with Heart [3]; 25.02 mmHg with Heart [4]; 227.72 bpm in the data set with Heart [5]; -822.39 mmHg/s in the data set on Heart [6]; 25.68 mmHg in the data set with Heart [7]. For the same compound, the Activity in the data set on Heart [8] is reported as 1333.56 mmHg/s; with Heart [9] it was 27.42 mmHg; in the data set with Heart [10], 1296.62 mmHg/s; in the data set on Heart [11], “Non-toxic”; in the data set with Heart [12], 230.67 bpm; with Heart [13], 231.39 bpm. Moreover, the Activity was 1303.47 mmHg/s in the data set with Heart [14], -782.91 mmHg/s with Heart [15], -0.11 mmHg in the data set on Heart [16] and -0.09 mmHg in the data set on Heart [17]. In data set [1], this compound showed a Retention_time of 3 min.

As to `Cc1nc(CO[C@@H]2O[C@H](C(=O)O)[C@@H](O)[C@H](O)[C@H]2O)c(C)nc1CO` (stereo in doubt; 2), the Activity with Heart [2] is listed as -0.97 mmHg; in the data set with Heart [3], -804.27 mmHg/s; in the data set on Heart [4] it was 22.35 mmHg; in the data set on Heart [5], 221.22 bpm; in the data set on Heart [6], -733.61 mmHg/s; in the data set on Heart [7], 22.66 mmHg. Further, the Activity in the data set with Heart [8] is given as 1127.22 mmHg/s; in the data set on Heart [9], 23.76 mmHg; in the data set on Heart [10], 1123.44 mmHg/s; with Heart [11], “Non-toxic”; with Heart [12], 220.67 bpm; in the data set with Heart [13], 234.28 bpm. Moreover, the Activity in the data set on Heart [14] is recorded as 1127.74 mmHg/s; in the data set with Heart [15], -790.99 mmHg/s; with Heart [16], -0.73 mmHg; in the data set on Heart [17], -0.76 mmHg. This compound also returned a Retention_time in [1] of 6.687 min.

As to `Cc1nc(CO)c(C)nc1CO`, the Activity in the data set on Heart [18] was 24.95%; in the data set on Heart [2] it was -0.34 mmHg; in the data set on Heart [19], 23.9%; with Heart [20] it was “Dose-dependent effect”; in the data set on Heart [5] it was 245.44 bpm; with Heart [21], “Dose-dependent effect”. For the same compound, the Activity was 59.4% in the data set with Heart [22]; “Dose-dependent effect” in the data set with Heart [23]; 17.65% in the data set with Heart [24]; 32.96% in the data set on Heart [25]; “Non-toxic” in the data set with Heart [11]; 238.5 bpm in the data set on Heart [12]. Further, the Activity is on record as 14.75% in the data set on Heart [26]; 10.38% with Heart [27]; 47.83% with Heart [28]; 239.06 bpm in the data set on Heart [13]; 0 mmHg with Heart [16]; -0.19 mmHg in the data set with Heart [17]. In the data set on Heart [29], the Activity is recorded as 4.23%.

As for `Cc1nc(C(=O)O)c(C)nc1CO`, the Activity in the data set with Heart [2] is on record as -0.38 mmHg; with Heart [3] it was -892.92 mmHg/s; in the data set with Heart [4], 26.98 mmHg; in the data set with Heart [5], 252.83 bpm; in the data set with Heart [6], -904.56 mmHg/s; in the data set on Heart [7], 27.85 mmHg. Besides, the Activity is on record as 1299.82 mmHg/s with Heart [8]; 28.51 mmHg in the data set with Heart [9]; 1286.48 mmHg/s in the data set with Heart [10]; “Non-toxic” with Heart [11]; 246.61 bpm in the data set on Heart [12]; 259.5 bpm in the data set with Heart [13]. Moreover, the Activity with Heart [14] is given as 1267.96 mmHg/s; in the data set on Heart [15], -865.84 mmHg/s; in the data set on Heart [16] it was -0.24 mmHg; in the data set with Heart [17], -0.19 mmHg. Besides, in [1], the Retention_time is 3.675 min and 3.637 min.

As to `Cc1nc(CSCC(N)C(=O)O)c(C)nc1CO` (stereo in doubt), the Retention_time in [1] stood at 2.988 min.

In the case of `CC(=O)NC(CSCc1nc(C)c(CO)nc1C)C(=O)O` (stereo in doubt; 4), the Activity is -0.59 mmHg in the data set with Heart [2]; -823.04 mmHg/s with Heart [3]; 21.22 mmHg in the data set on Heart [4]; 231.5 bpm in the data set on Heart [5]; -872.56 mmHg/s in the data set on Heart [6]; 21.69 mmHg with Heart [7]. Also, the Activity in the data set with Heart [8] is on record as 1199.81 mmHg/s; in the data set on Heart [9] it was 22.4 mmHg; with Heart [10], 1191.76 mmHg/s; in the data set on Heart [11], “Non-toxic”; in the data set with Heart [12] it was 232.39 bpm; with Heart [13], 228.5 bpm. Also, the Activity in the data set with Heart [14] is on record as 1186.33 mmHg/s; in the data set on Heart [15] it was -799.02 mmHg/s; with Heart [16], -0.15 mmHg; in the data set on Heart [17], -0.7 mmHg. For the same compound, the Retention_time in data set [1] turned out to be 5.705 min.

`Cc1nc(CO[C@@H]2O[C@H](C(=O)O)[C@@H](O)[C@H](O)[C@H]2O)c(C)nc1CO` (stereo in doubt) had a Retention_time in data set [1] of 6.71 min.
